According to PubChem BioAssay AID328 (DTP/NCI, 2004):
“And” between values parts separate entries of the source, which are not always exact repeats. Identical values can stand only once. Toxic doses and inconclusive results are not listed.

System: BDF1 mice, P388 leukemia ip, median survival T/C
Experiment: NCI In Vivo Anticancer Drug Screen. Data for tumor model P388 Leukemia (intraperitoneal) in B6D2F1 (BDF1) mice
Conditions: endpoint: median survival time, higher = longer survival
In short: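 Antitumour effect was judged in vivo: survival in drug-treated mice, normalised to that of vehicle-dosed controls, gives the reported T/C.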

[1] = dose: 100.0 mg/kg/injection, schedule: Q04DX003 (ip), vehicle: Klucel (hydroxypropylcellulose) (HPC)
[2] = dose: 100.0 mg/kg/injection, schedule: Q01DX009 (ip), vehicle: saline with Tween-80
[3] = dose: 100.0 mg/kg/injection, schedule: Q04DX003 (ip), vehicle: saline with Tween-80
[4] = dose: 200.0 mg/kg/injection, schedule: Q01DX009 (ip), vehicle: saline with Tween-80
[5] = dose: 200.0 mg/kg/injection, schedule: Q04DX003 (ip), vehicle: saline with Tween-80
[6] = dose: 400.0 mg/kg/injection, schedule: Q04DX003 (ip), vehicle: saline with Tween-80
[7] = dose: 100.0 mg/kg/injection, schedule: Q01DX001 (ip), vehicle: saline with Tween-80
[8] = dose: 200.0 mg/kg/injection, schedule: Q01DX001 (ip), vehicle: saline with Tween-80
[9] = dose: 400.0 mg/kg/injection, schedule: Q01DX001 (ip), vehicle: saline with Tween-80
[10] = dose: 200.0 mg/kg/injection, schedule: Q04DX003 (ip), vehicle: Klucel (hydroxypropylcellulose) (HPC)
[11] = dose: 400.0 mg/kg/injection, schedule: Q04DX003 (ip), vehicle: Klucel (hydroxypropylcellulose) (HPC)
[12] = dose: 50.0 mg/kg/injection, schedule: Q01DX009 (ip), vehicle: saline
[13] = dose: 100.0 mg/kg/injection, schedule: Q01DX009 (ip), vehicle: saline
[14] = dose: 200.0 mg/kg/injection, schedule: Q01DX009 (ip), vehicle: saline

COC(=O)C12OCC34C(CC5C(C)=C(O)C(=O)CC5(C)C3C(O)C1O)OC(=O)C(OC(=O)CC(C)C(C)C)C24 (stereo unspecified)
T/C (dose: 2.0 mg/kg/injection, schedule: Q01DX009 (ip), vehicle: saline + alcohol): 156 % of control
T/C (dose: 4.0 mg/kg/injection, schedule: Q01DX009 (ip), vehicle: saline + alcohol): 176 % of control
T/C (dose: 7.0 micrograms/kg/injection, schedule: Q01DX009 (ip), vehicle: saline + alcohol): 100 % of control
T/C (dose: 15.0 micrograms/kg/injection, schedule: Q01DX009 (ip), vehicle: saline + alcohol): 95 % of control and 119 % of control
T/C (dose: 27.5 micrograms/kg/injection, schedule: Q01DX009 (ip), vehicle: saline): 120 % of control
T/C (dose: 31.0 micrograms/kg/injection, schedule: Q01DX009 (ip), vehicle: saline + alcohol): 107 % of control and 113 % of control
T/C (dose: 62.0 micrograms/kg/injection, schedule: Q01DX009 (ip), vehicle: saline + alcohol): 115 % of control and 122 % of control
T/C (dose: 440.0 micrograms/kg/injection, schedule: Q01DX009 (ip), vehicle: saline): 150 % of control
T/C (dose: 500.0 micrograms/kg/injection, schedule: Q01DX009 (ip), vehicle: saline + alcohol): 123 % of control
T/C (dose: 1000.0 micrograms/kg/injection, schedule: Q01DX009 (ip), vehicle: saline + alcohol): 163 % of control
T/C (dose: 2000.0 micrograms/kg/injection, schedule: Q01DX009 (ip), vehicle: saline + alcohol): 168 % of control
T/C (dose: 4000.0 micrograms/kg/injection, schedule: Q01DX009 (ip), vehicle: saline + alcohol): 163 % of control

Cn1c(CS)nc2ccccc21
T/C (dose: 12.5 mg/kg/injection, schedule: Q04DX003 (ip), vehicle: Klucel (hydroxypropylcellulose) (HPC)): 104 % of control
T/C (dose: 25.0 mg/kg/injection, schedule: Q04DX003 (ip), vehicle: Klucel (hydroxypropylcellulose) (HPC)): 102 % of control
T/C (dose: 50.0 mg/kg/injection, schedule: Q04DX003 (ip), vehicle: Klucel (hydroxypropylcellulose) (HPC)): 105 % of control
T/C [1]: 96 % of control

O=C(O)c1c(I)c(I)c(I)c(I)c1C(=O)c1ccccc1
T/C (dose: 44.0 mg/kg/injection, schedule: Q04DX003 (ip), vehicle: saline): 109 % of control
T/C (dose: 67.0 mg/kg/injection, schedule: Q04DX003 (ip), vehicle: saline with Tween-80): 104 % of control
T/C (dose: 67.0 mg/kg/injection, schedule: Q04DX003 (ip), vehicle: saline): 104 % of control
T/C [2]: 111 % of control
T/C [3]: 104 % of control
T/C (dose: 100.0 mg/kg/injection, schedule: Q04DX003 (ip), vehicle: saline): 118 % of control
T/C (dose: 150.0 mg/kg/injection, schedule: Q04DX003 (ip), vehicle: saline with Tween-80): 109 % of control
T/C (dose: 150.0 mg/kg/injection, schedule: Q04DX003 (ip), vehicle: saline): 113 % of control
T/C [4]: 111 % of control
T/C [5]: 110 % of control
T/C [6]: 120 % of control

FC(F)(F)C(Cl)(Cc1ccc2ccccc2n1)C(F)(F)F
T/C [7]: 100 % of control
T/C [8]: 100 % of control
T/C [9]: 104 % of control

COc1cc(/C=N/N=C(\N)N[N+](=O)[O-])cc(OC)c1OC
T/C [7]: 90 % of control
T/C [8]: 90 % of control
T/C [9]: 90 % of control

CN(C(N)=O)c1c(O)nc(N)[nH]c1=O
T/C (dose: 12.5 mg/kg/injection, schedule: Q01DX009 (ip), vehicle: water): 106 % of control
T/C (dose: 25.0 mg/kg/injection, schedule: Q04DX003 (ip), vehicle: water): 106 % of control
T/C (dose: 50.0 mg/kg/injection, schedule: Q01DX009 (ip), vehicle: water): 88 % of control
T/C (dose: 50.0 mg/kg/injection, schedule: Q04DX003 (ip), vehicle: water): 100 % of control
T/C (dose: 100.0 mg/kg/injection, schedule: Q01DX009 (ip), vehicle: water): 91 % of control
T/C (dose: 100.0 mg/kg/injection, schedule: Q04DX003 (ip), vehicle: water): 106 % of control
T/C (dose: 200.0 mg/kg/injection, schedule: Q04DX003 (ip), vehicle: water): 106 % of control

C1CN2CCN1CC2.[Cl][Ni+][Cl]
T/C (dose: 0.78 mg/kg/injection, schedule: Q01DX009 (ip), vehicle: saline): 103 % of control
T/C (dose: 1.56 mg/kg/injection, schedule: Q01DX009 (ip), vehicle: saline): 92 % of control and 99 % of control
T/C (dose: 3.12 mg/kg/injection, schedule: Q01DX009 (ip), vehicle: saline): 99 % of control and 103 % of control
T/C (dose: 6.25 mg/kg/injection, schedule: Q01DX009 (ip), vehicle: saline): 100 % of control and 101 % of control

CC(OC(=O)Nc1cccc(Cl)c1)C(=O)O (stereo unspecified)
T/C (dose: 100.0 mg/kg/injection, schedule: Q01DX009 (ip), vehicle: gum acacia): 107 % of control
T/C (dose: 200.0 mg/kg/injection, schedule: Q01DX009 (ip), vehicle: gum acacia): 96 % of control
T/C (dose: 400.0 mg/kg/injection, schedule: Q01DX009 (ip), vehicle: gum acacia): 100 % of control

CCC(=O)O[C@H]1CC[C@H]2[C@@H]3[C@@H](C)CC4=CC(=O)CC[C@]4(C)[C@H]3CC[C@]12C
T/C [2]: 105 % of control
T/C [4]: 95 % of control
T/C (dose: 400.0 mg/kg/injection, schedule: Q01DX009 (ip), vehicle: saline with Tween-80): 95 % of control

CC(C)(C)c1cc(CO)cc(C(C)(C)C)c1O
T/C (dose: 100.0 mg/kg/injection, schedule: Q01DX009 (ip), vehicle: Klucel (hydroxypropylcellulose) (HPC)): 107 % of control
T/C [1]: 113 % of control
T/C (dose: 200.0 mg/kg/injection, schedule: Q01DX009 (ip), vehicle: Klucel (hydroxypropylcellulose) (HPC)): 103 % of control
T/C [10]: 118 % of control
T/C (dose: 400.0 mg/kg/injection, schedule: Q01DX009 (ip), vehicle: Klucel (hydroxypropylcellulose) (HPC)): 111 % of control
T/C [11]: 100 % of control

N#Cc1cn[nH]c1N
T/C [12]: 100 % of control
T/C [13]: 109 % of control
T/C [14]: 98 % of control

CCN(CC)CCCC(C)NCCCN (stereo unspecified)
T/C [12]: 96 % of control
T/C [13]: 96 % of control
T/C [14]: 94 % of control

CC(C)CCCC(C)C1CCC2C3CC=C4CC(OP(=O)(N5CC5)N5CC5)CCC4(C)C3CCC12C (stereo unspecified)
T/C (dose: 25.0 mg/kg/injection, schedule: Q01DX009 (ip), vehicle: saline with Tween-80): 98 % of control
T/C (dose: 50.0 mg/kg/injection, schedule: Q01DX009 (ip), vehicle: saline with Tween-80): 100 % of control
T/C [2]: 117 % of control
T/C [4]: 110 % of control

C1=CCC(COC(c2ccccc2)(c2ccccc2)c2ccccc2)C(COC(c2ccccc2)(c2ccccc2)c2ccccc2)C1 (stereo unspecified)
T/C [7]: 93 % of control
T/C [8]: 96 % of control
T/C [9]: 88 % of control

NOc1ccc([N+](=O)[O-])cc1[N+](=O)[O-]
T/C (dose: 6.25 mg/kg/injection, schedule: Q01DX009 (ip), vehicle: Klucel (hydroxypropylcellulose) (HPC)): 115 % of control
T/C (dose: 12.5 mg/kg/injection, schedule: Q01DX009 (ip), vehicle: Klucel (hydroxypropylcellulose) (HPC)): 95 % of control
T/C (dose: 16.5 mg/kg/injection, schedule: Q01DX009 (ip), vehicle: Klucel (hydroxypropylcellulose) (HPC)): 113 % of control
T/C (dose: 25.0 mg/kg/injection, schedule: Q01DX009 (ip), vehicle: Klucel (hydroxypropylcellulose) (HPC)): 103 % of control and 113 % of control

O=S(=O)(Cc1ccc(Cl)cc1)c1nc2ccccc2s1
T/C (dose: 50.0 mg/kg/injection, schedule: Q01DX005 (ip), vehicle: saline with Tween-80): 107 % of control
T/C (dose: 100.0 mg/kg/injection, schedule: Q01DX005 (ip), vehicle: saline with Tween-80): 105 % of control

Nc1n[nH]c(=S)n1-c1ccc(Cl)cc1
T/C [1]: 100 % of control
T/C [10]: 104 % of control
T/C [11]: 100 % of control

O=[N+]([O-])c1ccccc1NC1c2ccccc2Oc2ccccc21
T/C [1]: 116 % of control
T/C [10]: 122 % of control
T/C [11]: 122 % of control

O=c1c2oc3ccccc3c2cnn1CO
T/C [2]: 90 % of control
T/C [4]: 116 % of control

CCCNC(=O)Nc1cccc(C(F)(F)F)c1
T/C [3]: 104 % of control
T/C [5]: 109 % of control
T/C [6]: 100 % of control

CN(C)CC(Cl)CCl (stereo unspecified)
T/C [12]: 103 % of control and 118 % of control
T/C (dose: 178.0 mg/kg/injection, schedule: Q01DX009 (ip), vehicle: saline): 178 % of control
T/C [14]: 118 % of control and 168 % of control and 209 % of control
T/C (dose: 266.0 mg/kg/injection, schedule: Q01DX009 (ip), vehicle: saline): 190 % of control
T/C (dose: 400.0 mg/kg/injection, schedule: Q01DX009 (ip), vehicle: saline): 226 % of control and 200 % of control
